Experimental data as given in patent US20210205382A1, “METHODS AND COMPOSITIONS FOR USING METAL ELEMENTS IN AAV GENE THERAPY” (priority 2018, published 2021).

Columns and labels:
[1] = test system: HeLa cells infected with scAAV2-EGFP; experiment: Transduction efficiency of scAAV2-EGFP in HeLa cells (EGFP expression, fluorescent microscopy); details: for concentration giving maximal increase in transgene expression / maximal increase in transgene expression compared to when no essential metal element was added: HeLa, scAAV2-EGFP, 200 vgs per cell, 48 hours after infection; for maximal increase in transgene expression compared to when no essential metal element was added: at the concentration of maximal increase; for target blood concentration determined from the concentration of greatest improvement of AAV transduction efficiency in vitro: based on FIGS. 1H, 1F, 1C, 1I; for improvement of AAV transduction efficiency: cells infected with rAAV, metal alone or in combination (FIG. 2B)
Description: In an initial set of experiments, HeLa cells were infected with self-complementary AAV2 (scAAV2) comprising nucleic acid encoding EGFP (scAAV2-EGFP) at a multiplicity of infection of 200 viral genomes (vgs) per cell. Thereafter, various essential metal elements were added to the cell cultures at different concentrations. Transduction efficiency was measured 48 hours after infection, by evaluating the expression of EGFP using fluorescent microscopy. Images were analyzed using ImageJ software.

HeLa cells = experiment: Zn2+-induced cytotoxicity in HeLa cells; type: cell-based
[2] = test system: ZIP14 over-expressing Huh7 cells; experiment: Zn2+ effects in Huh7 cells over-expressing ZIP14, transduced with scAAV2-mCherry; type: cell-based, human
Text: The effect of metal ion (e.g., zinc) on the transduction efficiency of AAV vectors may be due to free floating zinc, because the increase in transduction occurs when the cell has taken up zinc to the point where extracellular accumulation occurs. […] ZIP14 is a metal ion transporter that primarily transports zinc into cells.
(§1) Therefore, targeting ZIP14-deficient HCC tumors would be ideal for Zn2+ infusions due to their tendency to prevent zinc uptake, and therefore, increase the level of environmental Zn2+. To test this hypothesis, Huh7 cells were either mock-transfected, or transfected with a recombinant plasmid containing a CMV promoter-driven ZIP14-EGFP fusion protein, and were transduced with scAAV2-mCherry vectors under identical conditions.

Huh7 cells [3] = experiment: Transgene expression of rAAV2-mCherry in Huh7 cells with zinc; type: cell-based, human; details: 15 μg/ml of Zn2+
Text: as §1

CCK8 cells = experiment: AAV2-mCherry transduction efficiency versus cell viability with varying zinc; type: cell-based; details: varying concentrations of zinc (FIG. 5)
Text: FIG. 5 provides an overlap of AAV transduction efficiency data and cell viability data from experiments in which CCK8 cells were transduced with AAV2 comprising mCherry encoding nucleic acid and treated with varying concentrations of zinc. […] FIGS. 6, 7, and 8 show similar data for HEK293 cells, HeLa cells, and HepG2 cells.

HepG2 cells = experiment: Factor IX expression in HepG2 cells infected with AAV3-Factor IX (Western blot); type: cell-based; details: rAAV3-Factor IX, 20 μg/ml, 3h post infection
Description: HepG2 cells, which express factor IX to a lower degree compared to other cell types, were cultured. They were then either infected with rAAV3 particles carrying nucleic acid encoding Factor IX, or infected with rAAV3 particles carrying nucleic acid encoding Factor IX and treated with 20 μg/ml of ZnCl2. When level of Factor IX expressed in the cells was measured using Western blot analysis after the cells there harvest 3h post infection.

Huh7 cells [4] = experiment: Zn2+-induced cytotoxicity in Huh7 cells (mock-transfected); type: cell-based, human
[5] = test system: Huh7 cells infected with scAAV3-EGFP; experiment: Percentage of Huh7 cells transduced by scAAV3-EGFP (flow cytometry); type: cell-based, human; details: different concentrations, flow cytometry (FIG. 4)
Description: Huh7 cells were infected with self-complementary AAV3 (scAAV3) comprising nucleic acid encoding EGFP (scAAV3-EGFP). Thereafter, zinc chloride was added to the cell cultures at different concentrations. Transduction efficiency was measured by evaluating the expression of EGFP using flow cytometry.

Compound	concentration giving maximal increase in transgene expression [1]	maximal increase in transgene expression compared to when no essential metal element was added [1] [fold]	target blood concentration determined from the concentration of greatest improvement of AAV transduction efficiency in vitro [1] [µg/mL]	improvement of AAV transduction efficiency [1] [fold]	concentration inducing significant cytotoxicity (HeLa cells)	zinc-induced improvement of rAAV transduction efficiency ([2]; Huh7 cells transfected with a ZIP14 gene)	Zn2+-induced cytotoxicity ([2]; ZIP14 over-expressing Huh7 cells, final concentration of 20 μg/ml)	increase in the transgene expression (Huh7 cells [3]) [fold]	rAAV transduction efficiency versus cell viability (CCK8 cells)	level of Factor IX expression compared to cells not treated with metal elements (HepG2 cells)	concentrations found to be cytotoxic (Huh7 cells [4]; Huh7 cells)	Zn2+-induced cytotoxicity (Huh7 cells [4]; mock-treated Huh7 cells, final concentration of 20 μg/ml)	increase in transgene expression ([1]; HeLa cells, final concentration of 30 μg/ml) [fold]	percentage of cells transduced by the scAAV3-EGFP vector [5]
[Cl-].[Cl-].[Mg+2] [magnesium chloride]	approximately 100 μg/ml	~2	100	–	–	–	–	–	–	–	–	–	–	–
[Cl][Ni][Cl] [nickel chloride]	20 µg/mL	~3	200	~2	–	–	–	–	–	–	–	–	–	–
[Cl-].[Cl-].[Zn+2] [zinc chloride]	30 µg/mL	~8	30	~8	exceeding 30 μg/ml	reduction in the zinc-induced improvement of rAAV transduction efficiency	evaded Zn2+-induced cytotoxicity	~7	drop in rAAV transduction efficiency correlates with cell viability	greater level of Factor IX expression	exceeding 20 μg/ml	not mock-treated Huh7 cells, evaded Zn2+-induced cytotoxicity	~8	increases with increasing concentration of zinc chloride
[Cl][Co][Cl] [cobalt chloride]	25 µg/mL	~2	20 to 30	~2	–	–	–	–	–	–	–	–	–	–
